Consider one molecule from US11484032B2, “Compositions for inhibition of insect sensing” (Vanderbilt University, priority 2011, dated 2022).

The target of one assay is T1, DmORco (Drosophila melanogaster, UniProt Q9VNB5).
T1 construct: expressed in transfected cells; host or cells: Flp-In T-REx 293 (HEK), transient, pCI vector, GFP co-transfected as a separate marker
T1 sequence (Q9VNB5 1-486): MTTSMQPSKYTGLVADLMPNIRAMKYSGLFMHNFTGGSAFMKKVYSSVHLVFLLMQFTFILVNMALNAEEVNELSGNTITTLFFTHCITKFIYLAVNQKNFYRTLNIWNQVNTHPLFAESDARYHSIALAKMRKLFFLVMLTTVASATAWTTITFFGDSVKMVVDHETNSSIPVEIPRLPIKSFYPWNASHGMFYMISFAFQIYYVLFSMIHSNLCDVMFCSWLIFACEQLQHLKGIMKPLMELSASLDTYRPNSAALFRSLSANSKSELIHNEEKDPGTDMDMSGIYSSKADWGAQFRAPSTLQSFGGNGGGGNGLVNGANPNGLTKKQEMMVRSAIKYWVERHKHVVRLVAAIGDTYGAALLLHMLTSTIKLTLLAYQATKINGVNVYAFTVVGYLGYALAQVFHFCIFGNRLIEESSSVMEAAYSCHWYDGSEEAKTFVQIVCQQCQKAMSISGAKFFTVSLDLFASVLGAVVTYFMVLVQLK
The assay can be described thus: Whole-cell patch clamp, HEK cells transiently expressing DmORco. In kind it is cell-based. To be noted: DmORco transiently transfected HEK cells. An excerpt:
For transient transfections, ORs were cloned into pCl (Promega) and transfected into Flp-In™ T-REx™293 cell lines (Invitrogen) with Fu GENE6 (Roche). For the creation of stable cell lines, a cell culture expression vector capable of expressing Orco in conjunction with a conventional OR, pcDNA5/FRT/TO (Invitrogen) was modified to create two individual expression cassettes each under the control of a separate CMV/Tet02 promoter and a BGH poly-adenylation signal. Cells (as above) were transfected with the modified pcDNA5 plasmid along with POG44 (a Flp recombinase expression plasmid) to facilitate site-specific recombination. Stable cell lines were selected using Hygromycin B (Invitrogen). Cells were maintained in DMEM (Invitrogen) supplemented with 10% Tetracycline-free FBS (HyClone) and 15 ng/ml Blasticidin. […] Baseline readings were taken for 20 s before automated addition of compound previously diluted in DMSO and assay buffer. […]
Currents from OR-expressing HEK293 cells were amplified with an Axopatch 200b Amplifier (Axon Instruments) and digitized through a Digidata 1322A (Axon Instruments). Electrophysiological data was recorded and analyzed using pCLAMP 10 (Axon Instruments). […]
For orientation: In patch-clamp work, channel activity is measured electrically.

In assay [1] the test system is CO2 sensitive CpA neuron (does not express AgORco). As to the kind of experiment: Single sensillum recording, capitate peg sensilla, CpA neuron. The class given is in vivo, Anopheles gambiae. To be noted: CO2 pulse at completion of assay. As to the method:
Single sensillum recordings were performed on 4-7 day old, non-bloodfed Anopheles gambiae females maintained on 10% sucrose and a 12/12 light dark cycle. Legs, wings and antennae were removed from cold-anesthetized females that were then restrained on double-stick tape with thread. A glass reference electrode filled with Sensillar lymph ringers (SLR)(Xu, 2005) was placed in the eye and the recording electrode filled with DMSO or VUAA1 diluted in SLR was used to puncture sensilla at their base. Responses were recorded and digitized using a Syntech IDAC-4 and analyzed with AutoSpike software (Syntech). New glass recording pipettes were used for every recording. Data was sampled at 12 kHz.
The inventors next performed single unit, extracellular electrophysiological recordings on adult female An. gambiae to determine whether VUAA1 could activate AgORco-expressing odorant receptor neurons (ORNs) in vivo. ORNs, which express AgORco and a conventional OR are enclosed within the hair-like sensilla present on olfactory tissues. […] CpA is clearly distinguished from CpB/C by its large action potential amplitude. The action potential amplitudes of CpB and CpC are much smaller and in some preparations indistinguishable from each other; as a result, the spike activity of CpB and CpC neurons were binned for data analysis. […]

Molecules are shown by their SMILES.

For `CCc1ccc(NC(=O)CSc2nnc(-c3cccnc3)n2CC)cc1` [VUAA1, 2-((4-ethyl-5-(pyridin-3-yl)-4H-1,2,4-triazol-3-yl)thio)-N-(4-ethylphenyl)acetamide], the whole-cell current response result at DmORco is given as “robust inward currents”. Besides, in assay [1], the CpA neuron activity result was “unchanged”.
